Assay results: ChEMBL document CHEMBL1126034, “Carboxylic acid replacement structure-activity relationships in suosan type sweeteners. A sweet taste antagonist. 1” (J Med Chem, 1992)

What was measured:
Assay type in all cases: functional
[1] = Compound was tested at the concentration of 1000(ppm) for percent sucrose intensity in aspartame solution contains concentration of 2000(ppm)
[2] = Compound was tested at the concentration of 0(ppm) for percent sucrose equivalent intensity in thaumatin aqueous solution contains concentration of 40(ppm)
[3] = Compound was tested at the concentration of 2000(ppm) for percent sucrose intensity in aspartame solution contains concentration of 2000(ppm)
[4] = Compound was tested at the concentration of 0(ppm) for percent sucrose equivalent intensity in sucrose aqueous solution contains concentration of 10000(ppm)
[5] = Compound was tested at the concentration of 4000(ppm) for percent sucrose intensity in aspartame solution contains concentration of 3000(ppm)
[6] = Compound was tested at the concentration of 2.0 mg/mL for percent sucrose intensity in aqueous sucrose solution (5.6%)
[7] = Compound was tested at the concentration of 0(ppm) for percent sucrose intensity in aspartame solution contains concentration of 2000(ppm)
[8] = Compound was tested at the concentration of 4000(ppm) for percent sucrose intensity in aspartame solution contains concentration of 2500(ppm)
[9] = Compound was tested at the concentration of 3.0 mg/mL for percent sucrose intensity in aqueous sucrose solution (7.5%)
[10] = Compound was tested at the concentration of 0(ppm) for percent sucrose equivalent intensity in aspartame aqueous solution contains concentration of 750(ppm)
[11] = Compound was tested at the concentration of 4.0 mg/mL for percent sucrose intensity in aqueous sucrose solution (3.5%)
[12] = Compound was tested at the concentration of 1000(ppm) for percent sucrose intensity in aspartame solution contains concentration of 1000(ppm)
[13] = Compound was tested at the concentration of 4000(ppm) for percent sucrose intensity in aspartame solution contains concentration of 1500(ppm)
[14] = Compound was tested at the concentration of 0.0 mg/mL for percent sucrose intensity in aqueous sucrose solution(5.6%)
[15] = Compound was tested at the concentration of 0.0 mg/mL for percent sucrose intensity in aqueous sucrose solution(3.5%)
[16] = Compound was tested at the concentration of 4000(ppm) for percent sucrose equivalent intensity in aspartame aqueous solution contains concentration of 750(ppm)
[17] = Compound was tested at the concentration of 4000(ppm) for percent sucrose intensity in aspartame solution contains concentration of 2000(ppm)
[18] = Compound was tested at the concentration of 2000(ppm) for percent sucrose intensity in aspartame solution contains concentration of 1000(ppm)
[19] = Compound was tested at the concentration of 4000(ppm) for percent sucrose equivalent intensity in NHDHC aqueous solution contains concentration of 250(ppm)
[20] = Compound was tested at the concentration of 4000(ppm) for percent sucrose equivalent intensity in acesulfame-K aqueous solution contains concentration of 1000(ppm)
[21] = Compound was tested at the concentration of 4000(ppm) for bitterness rating in quinine aqueous solution contains concentration of 15(ppm)
[22] = Compound was tested at the concentration of 4000(ppm) for bitterness rating in naringin aqueous solution contains concentration of 290(ppm)
[23] = Compound was tested at the concentration of 2.0 mg/mL for percent sucrose intensity in aqueous sucrose solution (7.5%)
[24] = Compound was tested at the concentration of 4000(ppm) for percent sucrose equivalent intensity in rebaudioside A aqueous solution contains concentration of 638(ppm)
[25] = Compound was tested at the concentration of 1000(ppm) for percent sucrose intensity in aspartame solution contains concentration of 3000(ppm)
[26] = Compound was tested at the concentration of 1000(ppm) for percent sucrose intensity in aspartame solution contains concentration of 250(ppm)
[27] = Compound was tested at the concentration of 4000(ppm) for percent sucrose intensity in aspartame solution contains concentration of 1000(ppm)
[28] = Compound was tested at the concentration of 0(ppm) for percent sucrose intensity in aspartame solution contains concentration of 750(ppm)
[29] = Compound was tested at the concentration of 2000(ppm) for percent sucrose intensity in aspartame solution contains concentration of 2500(ppm)
[30] = Compound was tested at the concentration of 0(ppm) for percent sucrose intensity in aspartame solution contains concentration of 3000(ppm)
[31] = Compound was tested at the concentration of 2.0 mg/mL for percent sucrose intensity in aqueous sucrose solution (12.5%)
[32] = Compound was tested at the concentration of 0(ppm) for bitterness rating in quinine aqueous solution contains concentration of 15(ppm)
[33] = Compound was tested at the concentration of 2000(ppm) for percent sucrose intensity in aspartame solution contains concentration of 250(ppm)
[34] = Compound was tested at the concentration of 3.0 mg/mL for percent sucrose intensity in aqueous sucrose solution (12.5%)
[35] = Compound was tested at the concentration of 4000(ppm) for percent sucrose equivalent intensity in Na cyclamate aqueous solution contains concentration of 5000(ppm)
[36] = Compound was tested at the concentration of 4.0 mg/mL for percent sucrose intensity in aqueous sucrose solution (5.6%)
[37] = Compound was tested at the concentration of 0(ppm) for bitterness rating in naringin aqueous solution contains concentration of 290(ppm)
[38] = Compound was tested at the concentration of 0.0 mg/mL for percent sucrose intensity in aqueous sucrose solution(7.5%)
[39] = Compound was tested at the concentration of 2000(ppm) for percent sucrose intensity in aspartame solution contains concentration of 3000(ppm)
[40] = Compound was tested at the concentration of 4000(ppm) for bitterness rating in caffiene aqueous solution contains concentration of 1100(ppm)
[41] = Compound was tested at the concentration of 1000(ppm) for percent sucrose intensity in aspartame solution contains concentration of 2500(ppm)
[42] = Compound was tested at the concentration of 4000(ppm) for percent sucrose equivalent intensity in saccharin aqueous solution contains concentration of 330(ppm)
[43] = Compound was tested at the concentration of 2.0 mg/mL for percent sucrose intensity in aqueous sucrose solution (3.5%)
[44] = Compound was tested at the concentration of 4000(ppm) for percent sucrose equivalent intensity in MAG aqueous solution contains concentration of 3000(ppm)
[45] = Compound was tested at the concentration of 0(ppm) for percent sucrose intensity in aspartame solution contains concentration of 1000(ppm)
[46] = Compound was tested at the concentration of 4.0 mg/mL for percent sucrose intensity in aqueous sucrose solution (10%)
[47] = Compound was tested at the concentration of 3.0 mg/mL for percent sucrose intensity in aqueous sucrose solution (10%)
[48] = Compound was tested at the concentration of 4.0 mg/mL for percent sucrose intensity in aqueous sucrose solution (7.5%)
[49] = Compound was tested at the concentration of 2000(ppm) for percent sucrose intensity in aspartame solution contains concentration of 750(ppm)
[50] = Compound was tested at the concentration of 0(ppm) for percent sucrose equivalent intensity in saccharin aqueous solution contains concentration of 330(ppm)
[51] = Compound was tested at the concentration of 1000(ppm) for percent sucrose intensity in aspartame solution contains concentration of 1500(ppm)
[52] = Compound was tested at the concentration of 0(ppm) for percent sucrose intensity in aspartame solution contains concentration of 1500(ppm)
[53] = Compound was tested at the concentration of 2.0 mg/mL for percent sucrose intensity in aqueous sucrose solution (10%)
[54] = Compound was tested at the concentration of 0(ppm) for percent sucrose equivalent intensity in sucralose aqueous solution contains concentration of 152(ppm)
[55] = Compound was tested at the concentration of 2000(ppm) for percent sucrose intensity in aspartame solution contains concentration of 1500(ppm)
[56] = Compound was tested at the concentration of 4000(ppm) for percent sucrose intensity in aspartame solution contains concentration of 250(ppm)
[57] = Compound was tested at the concentration of 4.0 mg/mL for percent sucrose intensity in aqueous sucrose solution (12.5%)
[58] = Compound was tested at the concentration of 0(ppm) for percent sucrose intensity in aspartame solution contains concentration of 500(ppm)
[59] = Compound was tested at the concentration of 4000(ppm) for percent sucrose equivalent intensity in sucrose aqueous solution contains concentration of 10000(ppm)
[60] = Compound was tested at the concentration of 0(ppm) for percent sucrose equivalent intensity in MAG aqueous solution contains concentration of 3000(ppm)
[61] = Compound was tested at the concentration of 0(ppm) for percent sucrose equivalent intensity in Na cyclamate aqueous solution contains concentration of 5000(ppm)
[62] = Compound was tested at the concentration of 0.0 mg/mL for percent sucrose intensity in aqueous sucrose solution( 10%)
[63] = Compound was tested at the concentration of 3.0 mg/mL for percent sucrose intensity in aqueous sucrose solution (5.6%)
[64] = Compound was tested at the concentration of 3.0 mg/mL for percent sucrose intensity in aqueous sucrose solution (3.5%)
[65] = Compound was tested at the concentration of 0(ppm) for bitterness rating in caffiene aqueous solution contains concentration of 1100(ppm)
[66] = Compound was tested at the concentration of 1000(ppm) for percent sucrose intensity in aspartame solution contains concentration of 750(ppm)
[67] = Compound was tested at the concentration of 1000(ppm) for percent sucrose intensity in aspartame solution contains concentration of 500(ppm)
[68] = Compound was tested at the concentration of 0.0 mg/mL for percent sucrose intensity in aqueous sucrose solution(12.5%)
[69] = Compound was tested at the concentration of 0(ppm) for percent sucrose intensity in aspartame solution contains concentration of 250(ppm)
[70] = Compound was tested at the concentration of 0(ppm) for percent sucrose equivalent intensity in acesulfame-K aqueous solution contains concentration of 1000(ppm)
[71] = Compound was tested at the concentration of 4000(ppm) for percent sucrose intensity in aspartame solution contains concentration of 750(ppm)
[72] = Compound was tested at the concentration of 4000(ppm) for percent sucrose intensity in aspartame solution contains concentration of 500(ppm)
[73] = Compound was tested at the concentration of 4000(ppm) for percent sucrose equivalent intensity in thaumatin aqueous solution contains concentration of 40(ppm)
[74] = Compound was tested at the concentration of 2000(ppm) for percent sucrose intensity in aspartame solution contains concentration of 500(ppm)
[75] = Compound was tested at the concentration of 0(ppm) for percent sucrose equivalent intensity in NHDHC aqueous solution contains concentration of 250(ppm)
[76] = Compound was tested at the concentration of 4000(ppm) for percent sucrose equivalent intensity in sucralose aqueous solution contains concentration of 152(ppm)
[77] = Compound was tested at the concentration of 0(ppm) for percent sucrose intensity in aspartame solution contains concentration of 2500(ppm)
[78] = Compound was tested at the concentration of 0(ppm) for percent sucrose equivalent intensity in rebaudioside A aqueous solution contains concentration of 638(ppm)

N#Cc1ccc(NC(=O)NCS(=O)(=O)O)cc1
Sweetness potency [1]: 10.5 0-15 scale
Sweetness potency [2]: 8.86 0-15 scale
Sweetness potency [3]: 9.35 0-15 scale
Sweetness potency [4]: 9.6 0-15 scale
Sweetness potency [5]: 7.82 0-15 scale
Sweetness potency [6]: 3.6 0-15 scale
Sweetness potency [7]: 12 0-15 scale
Sweetness potency [8]: 8.86 0-15 scale
Sweetness potency [9]: 4.2 0-15 scale
Sweetness potency [10]: 9.88 0-15 scale
Sweetness potency [11]: 1.2 0-15 scale
Sweetness potency [12]: 8.83 0-15 scale
Sweetness potency [13]: 6.44 0-15 scale
Sweetness potency [14]: 6.1 0-15 scale
Sweetness potency [15]: 4 0-15 scale
Sweetness potency [16]: 3.87 0-15 scale
Sweetness potency [17]: 6.91 0-15 scale
Sweetness potency [18]: 7.34 0-15 scale
Sweetness potency [19]: 5.98 0-15 scale
Sweetness potency [20]: 4.59 0-15 scale
Bitter taste intensity [21]: 5.73 0-15 scale
Bitter taste intensity [22]: 7.8 0-15 scale
Sweetness potency [23]: 4.9 0-15 scale
Sweetness potency [24]: 3.11 0-15 scale
Sweetness potency [25]: 10.7 0-15 scale
Sweetness potency [26]: 3.3 0-15 scale
Sweetness potency [27]: 5.85 0-15 scale
Sweetness potency [28]: 9.78 0-15 scale
Sweetness potency [29]: 8.95 0-15 scale
Sweetness potency [30]: 11.4 0-15 scale
Sweetness potency [31]: 9.3 0-15 scale
Bitter taste intensity [32]: 11.8 0-15 scale
Sweetness potency [33]: 2.11 0-15 scale
Sweetness potency [34]: 8.6 0-15 scale
Sweetness potency [35]: 6.05 0-15 scale
Sweetness potency [36]: 1.3 0-15 scale
Bitter taste intensity [37]: 10.5 0-15 scale
Sweetness potency [38]: 8.5 0-15 scale
Sweetness potency [39]: 9.11 0-15 scale
Bitter taste intensity [40]: 4.77 0-15 scale
Sweetness potency [41]: 10.2 0-15 scale
Sweetness potency [42]: 4.06 0-15 scale
Sweetness potency [43]: 2.3 0-15 scale
Sweetness potency [44]: 5.28 0-15 scale
Sweetness potency [45]: 10.1 0-15 scale
Sweetness potency [46]: 4.5 0-15 scale
Sweetness potency [47]: 6.5 0-15 scale
Sweetness potency [48]: 3.3 0-15 scale
Sweetness potency [49]: 6.24 0-15 scale
Sweetness potency [50]: 8.15 0-15 scale
Sweetness potency [51]: 9.62 0-15 scale
Sweetness potency [52]: 11.4 0-15 scale
Sweetness potency [53]: 7.3 0-15 scale
Sweetness potency [54]: 8.52 0-15 scale
Sweetness potency [55]: 8.35 0-15 scale
Sweetness potency [56]: 1.37 0-15 scale
Sweetness potency [57]: 6.4 0-15 scale
Sweetness potency [58]: 7.55 0-15 scale
Sweetness potency [59]: 3.23 0-15 scale
Sweetness potency [60]: 6.97 0-15 scale
Sweetness potency [61]: 10.1 0-15 scale
Sweetness potency [62]: 10.1 0-15 scale
Sweetness potency [63]: 2.2 0-15 scale
Sweetness potency [64]: 1.6 0-15 scale
Bitter taste intensity [65]: 8.48 0-15 scale
Sweetness potency [66]: 7.43 0-15 scale
Sweetness potency [67]: 5.98 0-15 scale
Sweetness potency [68]: 12.3 0-15 scale
Sweetness potency [69]: 5.34 0-15 scale
Sweetness potency [70]: 7.88 0-15 scale
Sweetness potency [71]: 4.46 0-15 scale
Sweetness potency [72]: 2.57 0-15 scale
Sweetness potency [73]: 6.23 0-15 scale
Sweetness potency [74]: 4.48 0-15 scale
Sweetness potency [75]: 8.85 0-15 scale
Sweetness potency [76]: 1.43 0-15 scale
Sweetness potency [77]: 12.9 0-15 scale
Sweetness potency [78]: 7.62 0-15 scale
